Measurements as given in patent publication US20120108629A1, “New use of neferine” (Institute of Chinese Materia Medica, China Academy, priority 2009, published 2012).

Legend:
TRPV1 mRNA = TRPV1 mRNA expression in DRG cells by real-time PCR; assay type: cell-based, rat; conditions: for TRPV1 mRNA expression (2^−ΔΔCT): 37° C. 24 h
TRPM8 mRNA = TRPM8 mRNA expression in DRG cells by real-time PCR; conditions: DRG cells
Description: DRG were aseptically removed and meticulously cleaned the rootlets and connective tissue. The tissue was digested with collagenase and trypsin in succession, and then centrifuged and the digestive liquid was discarded. Cells were prepared into single cell suspension in common culture medium, and then calculated and adjusted to 10^5 nerve cells per ml. It was incubated in culture plates pre-coated with laminin at 37° C. in 5% CO2 for 48 hours. Camptothecine was used to inhibit proliferation of other cells. Culture was continued to obtain DRG cells with a high purity (>98%).
Detection of TRPM8 and TRPV1 mRNA expression: The total RNA of the DRG neuronal cells was extracted in a routine way, after exposure to the tested agents of various concentrations under the normal, low and high temperature conditions respectively. The concentration of RNA was measured and its cDNA was prepared. The desired amount of resulting cDNA and TRPM8 or TRPV1 gene primers were added on the IQ5-Type real-time IQ5-Type real-time PCR meter with GAPDH as the endogenous control to perform extension. Melting curves were generated. Relative gene expression was calculated using the comparative threshold cycle (2-^ΔΔCT) method with the calculated formula as following:
ΔΔCt=(Ct,Target-Ct,GAPDH)x-(Ct,Target-Ct,GAPDH)Control
X represents any one of tested, Control represents double target gene expression after GAPDH correction.
The purified culture medium of DRG cells was added with three different concentrations of test compounds and cultured at 37° C. in 5% CO2 for 24 h. The total RNA was extracted immediately after culture. The TRPM8 agonist hexahydrothymol was positive control group and the normal culture medium was vehicle control group. Then the real-time PCR amplification was performed and TRPM8 mRNA was determined.
The purified culture medium of DRG cells was added with three different concentrations of test compounds and cultured at 37° C. in 5% CO2 for 23 h followed by 39° C. in 5% CO2 for 1 h. The total RNA was extracted immediately after culture. The TRPM8 agonist hexahydrothymol was positive control group and the normal culture medium was vehicle control group. Then the real-time PCR amplification was performed and TRPM8 mRNA was determined.
The purified culture medium of DRG cells was added with three different concentrations of test compounds and cultured at 37° C. in 5% CO2 for 22 h followed by 19° C. in 5% CO2 for 2 h. The total RNA was extracted immediately after culture. The TRPM8 agonist hexahydrothymol was positive control group and the normal culture medium was vehicle control group. Then the real-time PCR amplification was performed and TRPM8 mRNA was determined.

TRPV1 [1] = target: TRPV1 (Rattus norvegicus, UniProt O35433); test: Intracellular calcium change in DRG cells, Fluo-4 fluorescence (Examples 9-11, Tables 9-11); assay type: cell-based
Sequence of TRPV1 (Rattus norvegicus, UniProt O35433) (O35433 whole entry): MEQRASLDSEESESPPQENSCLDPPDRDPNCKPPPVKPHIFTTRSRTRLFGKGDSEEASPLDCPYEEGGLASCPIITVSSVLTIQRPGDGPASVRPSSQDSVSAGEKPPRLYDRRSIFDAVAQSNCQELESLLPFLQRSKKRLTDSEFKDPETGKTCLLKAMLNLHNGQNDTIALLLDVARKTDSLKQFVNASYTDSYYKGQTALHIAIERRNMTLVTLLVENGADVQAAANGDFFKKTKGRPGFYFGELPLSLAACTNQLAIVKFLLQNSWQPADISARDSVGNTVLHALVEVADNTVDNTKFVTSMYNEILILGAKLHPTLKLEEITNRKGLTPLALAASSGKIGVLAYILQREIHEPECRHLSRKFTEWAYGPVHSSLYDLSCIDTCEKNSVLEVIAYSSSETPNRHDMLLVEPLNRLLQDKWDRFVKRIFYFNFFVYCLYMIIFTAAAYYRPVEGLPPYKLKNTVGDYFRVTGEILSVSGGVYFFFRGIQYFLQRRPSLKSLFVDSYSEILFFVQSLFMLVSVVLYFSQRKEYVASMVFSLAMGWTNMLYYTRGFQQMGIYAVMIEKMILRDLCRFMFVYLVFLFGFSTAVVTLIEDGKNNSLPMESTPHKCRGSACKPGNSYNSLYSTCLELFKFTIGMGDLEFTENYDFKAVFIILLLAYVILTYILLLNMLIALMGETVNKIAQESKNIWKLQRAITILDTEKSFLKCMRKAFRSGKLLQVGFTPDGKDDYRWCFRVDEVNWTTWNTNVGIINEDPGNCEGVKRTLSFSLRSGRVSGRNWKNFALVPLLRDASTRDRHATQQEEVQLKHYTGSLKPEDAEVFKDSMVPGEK
Description: (§1) Detection of intracellular calcium concentrations of DRG cells: DRG cells cultured under normal, low and high temperature conditions was obtained. The medium was discarded and the cells were washed after certain time. 0.1%F-127, 5 μM of Fluo-4-AM, M fluorescent dye were added and loaded at 25° C. out of light for 30 min. After dye loading, the redundant dye was washed out and buffer and test compounds were added respectively. The cells were put in a closed chamber on a microscope stage. Fluorescence dyed cells were detected with appropriate conditions. The change of fluorescence intensity in each cell was determined and the data were analyzed by software. The change of the intracellular calcium concentration was indicated by fluorescence intensity. The change degree of the intracellular calcium concentration was represented by the percent ratio of the change value of fluorescence intensity before and after administration and the value of fluorescence intensity before administration (Δ[Ca2+]i), i.e. Δ[Ca2+]i=(fluorescence intensity value after administration F-fluorescence intensity value before administration F0)/fluorescence intensity value before administration F0×100%. The change of the intracellular calcium concentration indicated the function of TRP.
(§2) The medium was discarded and the fluorescent dye was added and loaded for 30 min. The change of fluorescence intensity in cell was determined in a closed chamber on a microscope stage and the change of the intracellular calcium concentration was assayed.
as §2
(this is the appropriate stimulation time for the intracellular calcium change after stimulation under 19° C., and the experiment data was not shown). The medium was discarded and the fluorescent dye was added and loaded for 30 min.

TRPV1 [2] = test: Intracellular calcium change in DRG cells, Fluo-4 fluorescence (Examples 4-5, Tables 4-5); assay type: cell-based, rat
Description: as §1, §2, §2

[3] = 37° C. 22 h then 19° C. 2 h, 37.5 μmol/L
[4] = 37° C. 22 h then 19° C. 2 h, 75 μmol/L
[5] = 37° C. 22 h then 19° C. 2 h, 150 μmol/L
[6] = 37° C. 23 h then 39° C. 1 h, 37.5 μmol/L
[7] = 37° C. 23 h then 39° C. 1 h, 75 μmol/L
[8] = 37° C. 23 h then 39° C. 1 h, 150 μmol/L

CC1CCC(C(C)C)C(O)C1 (stereo not drawn) [hexahydrothymol, reference compound]
TRP V1 mRNA expression(2^−ΔΔCT) (TRPV1 mRNA; [3]): 0.54 ± 0.17
TRP V1 mRNA expression(2^−ΔΔCT) (TRPV1 mRNA; [4]): 0.48 ± 0.19
TRP V1 mRNA expression(2^−ΔΔCT) (TRPV1 mRNA; [5]): 0.47 ± 0.15
TRP V1 mRNA expression(2^−ΔΔCT) (TRPV1 mRNA; [6]): 4.22 ± 0.49
TRP V1 mRNA expression(2^−ΔΔCT) (TRPV1 mRNA; [7]): 4.01 ± 0.73
TRP V1 mRNA expression(2^−ΔΔCT) (TRPV1 mRNA; [8]): 4.05 ± 0.81
TRPV1 mRNA expression (2^−ΔΔCT) (TRPV1 mRNA; 37.5 μmol): 0.96 ± 0.21
TRPV1 mRNA expression (2^−ΔΔCT) (TRPV1 mRNA; 75 μmol): 1.10 ± 0.28
TRPV1 mRNA expression (2^−ΔΔCT) (TRPV1 mRNA; 150 μmol): 1.08 ± 0.31
TRPM8 mRNA expression (2^−ΔΔCT) (TRPM8 mRNA; [3]): 3.67 ± 0.93
TRPM8 mRNA expression (2^−ΔΔCT) (TRPM8 mRNA; [4]): 3.72 ± 1.09
TRPM8 mRNA expression (2^−ΔΔCT) (TRPM8 mRNA; [5]): 4.07 ± 1.12
TRPM8 mRNA expression (2^−ΔΔCT) (TRPM8 mRNA; [6]): 0.89 ± 0.25
TRPM8 mRNA expression (2^−ΔΔCT) (TRPM8 mRNA; [7]): 0.91 ± 0.27
TRPM8 mRNA expression (2^−ΔΔCT) (TRPM8 mRNA; [8]): 0.96 ± 0.32
TRPM8 mRNA expression (2^−ΔΔCT) (TRPM8 mRNA; 37° C. 24 h, 37.5 μmol/L): 1.13 ± 0.22
TRPM8 mRNA expression (2^−ΔΔCT) (TRPM8 mRNA; 37° C. 24 h, 75 μmol/L): 1.20 ± 0.28
TRPM8 mRNA expression (2^−ΔΔCT) (TRPM8 mRNA; 37° C. 24 h, 150 μmol/L): 1.29 ± 0.31
Intracellular Calcium changes [(F1 − F0)/F0/%] (TRPV1 [1]; Table 9, DRG cells, 37° C. 24 h, 37.5 μmol/L): 100.14 ± 11.26%
Intracellular Calcium changes [(F1 − F0)/F0/%] (TRPV1 [1]; Table 9, DRG cells, 37° C. 24 h, 75 μmol/L): 101.82 ± 14.89%
Intracellular Calcium changes [(F1 − F0)/F0/%] (TRPV1 [1]; Table 9, DRG cells, 37° C. 24 h, 150 μmol/L): 98.31 ± 12.17%
Intracellular Calcium changes [(F1 − F0)/F0/%] (TRPV1 [1]; Table 10, DRG cells, 37° C. 22 h then 39° C. 2 h, 37.5 μmol/L): 133.49 ± 15.18%
Intracellular Calcium changes [(F1 − F0)/F0/%] (TRPV1 [1]; Table 10, DRG cells, 37° C. 22 h then 39° C. 2 h, 75 μmol/L): 132.01 ± 14.50%
Intracellular Calcium changes [(F1 − F0)/F0/%] (TRPV1 [1]; Table 10, DRG cells, 37° C. 22 h then 39° C. 2 h, 150 μmol/L): 126.08 ± 12.48%
Intracellular Calcium changes [(F1 − F0)/F0/%] (TRPV1 [1]; Table 11, DRG cells, 37° C. 21 h then 19° C. 3 h, 37.5 μmol/L): 96.91 ± 11.34%
Intracellular Calcium changes [(F1 − F0)/F0/%] (TRPV1 [1]; Table 11, DRG cells, 37° C. 21 h then 19° C. 3 h, 75 μmol/L): 96.75 ± 11.08%
Intracellular Calcium changes [(F1 − F0)/F0/%] (TRPV1 [1]; Table 11, DRG cells, 37° C. 21 h then 19° C. 3 h, 150 μmol/L): 95.48 ± 10.23%
Intracellular Calcium changes [(F1 − F0)/F0/%] (TRPV1 [2]; Table 4, DRG cells, 37° C. 24 h, 37.5 μmol/L): 116.52 ± 10.22%
Intracellular Calcium changes [(F1 − F0)/F0/%] (TRPV1 [2]; Table 4, DRG cells, 37° C. 24 h, 75 μmol/L): 117.46 ± 13.58%
Intracellular Calcium changes [(F1 − F0)/F0/%] (TRPV1 [2]; Table 4, DRG cells, 37° C. 24 h, 150 μmol/L): 120.65 ± 12.19%
Intracellular Calcium changes [(F1 − F0)/F0/%] (TRPV1 [2]; Table 5, DRG cells, 37° C. 22 h then 39° C. 2 h, 37.5 μmol/L): 107.54 ± 13.09%
Intracellular Calcium changes [(F1 − F0)/F0/%] (TRPV1 [2]; Table 5, DRG cells, 37° C. 22 h then 39° C. 2 h, 75 μmol/L): 108.63 ± 15.17%
Intracellular Calcium changes [(F1 − F0)/F0/%] (TRPV1 [2]; Table 5, DRG cells, 37° C. 22 h then 39° C. 2 h, 150 μmol/L): 112.92 ± 13.19 %
